A melting point compilation (Tetko et al.; mined from patent text by program, amines drawn as free bases though some values may be those of a salt)

Row | melting point | Compound
1 | 142 to 143 °C | NC(=O)c1ccc(OCCCCl)cc1
2 | 94 to 97 °C | O=c1c2c(N3CCNCC3)cc(Cl)cc2n(Cc2ccccc2)c(=O)n1Cc1ccccc1Br
3 | 110 to 120 °C | O=C([C@@H]1O[C@H]1c1ccccc1)N(CC1CC1)[C@@H]1CCCC[C@H]1O
4 | 156 to 157 °C | O=C(O)c1cccc(-c2cccc3c2OC(Cc2cccc(C(F)(F)F)c2)C3)c1 (stereo unspecified)
5 | 245 to 248 °C | CC(C)(C)c1ccc(-c2nn3c(=O)c([N+](=O)[O-])c(Cl)nc3s2)cc1
6 | 105 to 107 °C | O=C(Oc1ccccc1)N1CCC2(CC1)c1ccccc1Oc1ccccc12
7 | 192 to 195 °C | CCNc1nc2ccccc2n(-c2ccc(Cl)cc2)c1=O
8 | 92 to 96 °C | NC(=O)c1sc2nccc(N3CCCN(c4ccc(Cl)cc4)CC3)c2c1N
9 | 230 to 231 °C | Cc1cccc(C(=O)c2[nH]c3cc(Cl)ccc3c2CC(=O)O)n1
10 | 65 °C | O=C(CCNNC(=O)c1ccccc1)OCc1ccccc1
11 | 138 to 139 °C | COc1ccc(C2=Cc3ccc(OCc4ccccc4)cc3OC2O)cc1 (stereo unspecified)
12 | 114 to 116 °C | CCN(CC)C(=O)c1ccc2ccccc2c1-c1ccc(OC)cc1
13 | 183 to 184 °C | O=C(O)C1=Nc2ccc3c(c2=C1)=CCO3
14 | 182 to 183 °C | COc1ccc(Cn2c(=O)c(NN)nc3ccc4ccccc4c32)c(OC)c1
15 | 117 to 119 °C | Nc1ccc(CN2C(=O)C3(COc4cc5c(cc43)OCCO5)c3ccccc32)cn1 (stereo unspecified)
16 | 180 to 182 °C | CC(C)S(=O)(=O)n1c(N)nc2ccc(C(=CBr)c3ccccc3)cc21
17 | 210 to 213 °C | Cc1nn(-c2ccccn2)c2nc3ccccc3c(N)c12
18 | 150 to 151 °C | O=C(O)C1CCCN(CCC#Cc2ccccc2)C1 (stereo unspecified)
19 | 190 to 193 °C | Cc1c(-c2cccnc2)n(CCOc2ccc(C(=O)O)cc2)c2ccccc12
20 | 99 to 101 °C | CC(=O)Oc1ccc(Cn2ccnc2SC(C)=O)cc1
21 | 182 to 184 °C | CCCOc1ccccc1C1N=C2N=NC=C2C(=O)N1 (stereo unspecified)

Row | melting point | Compound
22 | 225 to 227 °C | O=C1C(=NO)SCCN1Cc1ccccc1
23 | 158 to 160 °C | CCN1CC(OCC=C(C)C)(C(F)(F)F)c2cc(Cl)ccc2NC1=O (stereo unspecified)
24 | 139 to 140 °C | CC(=O)Nc1cc(C)cc(OCc2ccccc2)c1C
25 | 235 to 237 °C | O=[N+]([O-])c1cnn2c1-c1ccccc1NC2c1ccccc1O (stereo unspecified)
26 | 97 to 99 °C | C=CCNC(=O)N1CC(OCc2ccc(F)cc2)C1
27 | 81 °C | CC(C)(S)CN1CCN(Cc2ccc(O)cc2)CC1
28 | 97 to 99 °C | COc1cccc(CN2CCc3cc(O)c(OC)cc3C2C)c1 (stereo unspecified)
29 | 58 to 60 °C | COc1cc(C=C2C(=O)CCc3ccccc32)c([N+](=O)[O-])cc1OC
30 | 100 to 102 °C | CCCCc1nnc(SCc2ccc(Cl)cc2)n1Cc1ccc(OC(C(=O)O)c2ccccc2Cl)cc1 (stereo unspecified)
31 | 141 to 142 °C | CN(C)c1nc(N)c2ccccc2n1
32 | 104 to 106 °C | O/N=C1/c2ccccc2OC12CCCCCC2
33 | 174 °C | COC(=O)c1ccccc1S(=O)(=O)Nn1c(C)nn(-c2nc(OC)cc(OC)n2)c1=O
34 | 253 to 255 °C | Nc1nc(N)nc(-c2ccc(S(=O)c3ccccc3)cc2)n1 (stereo unspecified)
35 | 94 °C | CN(C)CCCNC(=O)c1ccc(-c2cnc3c(c2)N(C(=O)c2ccccc2)CCN3)cc1
36 | 101 to 103 °C | COc1ccc(CNc2ccccc2C(=O)Nc2ccc(Br)c(C(F)(F)F)c2)cn1
37 | 166 to 167 °C | COC(=O)C1C(=O)N(C)C(=O)c2ccc(Cl)cc21 (stereo unspecified)
38 | 154 to 155 °C | Cc1ccc(CN2CCN3C(=O)OC(c4ccccc4)(c4ccccc4)C3C2)cc1 (stereo unspecified)
39 | 203 °C | CCCC1=C(C(=O)OCC)C(c2ccccc2OCC)c2c[nH]nc2N1 (stereo unspecified)
40 | 102 to 104 °C | CCOC(=O)C1(C(=O)OCC)OC(=O)c2ccccc2C1(O)c1ccc(F)cc1 (stereo unspecified)
41 | 86 to 87 °C | CCOc1cc(C(CC(=O)OC)N2C(=O)c3ccccc3C2=O)ccc1OC (stereo unspecified)
42 | 68 °C | O=C(NC/C=C/c1ccccc1)c1ccccc1F

Second part, the compound before the results:

Row | Compound | melting point
43 | CCOC(=O)C(Cc1cnc2ccc(OC)cc2c1)(NC(C)=O)C(=O)OCC | 151 to 152 °C
44 | COCOC1CCC2(C)C(=CCC3C2CCC2(C)C(CO)CCC32)C1 (stereo unspecified) | 102 to 105 °C
45 | NS(=O)(=O)c1cccc(-c2noc(-c3cnn4ccc(-c5ccc(Cl)cc5)nc34)n2)c1 | 223 °C
46 | CCNC(=O)n1nc(Oc2c(Cl)cc(C(F)(F)F)cc2Cl)cc1CC(=O)OCC | 100 to 102 °C
47 | CC=CCn1c(C)c(C)c2cnnc(OCc3ccco3)c21 | 84 to 85 °C
48 | CCOC(=O)N(C)C(=O)N(O)C(C)c1cc(C)sc1C (stereo unspecified) | 111 to 112 °C
49 | NC[C@@H]1CCCc2cc(S(=O)(=O)Nc3cccc(F)c3)ccc21 | 122 to 123 °C
50 | COc1cc(OC)nc(C(CC2CC2)C(=O)NS(C)(=O)=O)n1 (stereo unspecified) | 92 to 94 °C
51 | CSc1ccc(-c2nn(Cc3ccc(Cl)cc3Cl)c(=O)cc2-c2ccc(F)cc2)cc1 | 139 to 140 °C
52 | N[C@@H](CO)C(=O)Nn1cccc1 | 135 to 137 °C
53 | COC(=O)c1ccc(N2CCNCC2)nc1 | 91 to 92 °C
54 | CCC(=O)Oc1cc(OC)cc(OC)c1C(=O)C=Cc1ccc(OC)cc1 | 117 to 118 °C
55 | C=Cc1cc(NC(=O)N2CCN(c3cc(OC)cc(OC)c3)CC2)c(OC)nc1C | 140 to 141 °C
56 | CCCCCCCCCCCCN(CCCCCCCCCCCC)C(=O)c1c(C)cc(C)c(C)c1O | 56 °C
57 | COc1ccc(CN(CCN(C)CCCCCCNC(=C[N+](=O)[O-])NCCCOc2cccc(CN3CCCCC3)c2)c2ccccn2)cc1 | 73 °C
58 | Cc1ccc(C)n1Nc1ccc(N2CC(C)OC(C)C2)nn1 (stereo unspecified) | 147 to 148 °C
59 | Nc1c2c(nc3cccc(F)c13)CCCC2 | 175 °C
60 | CCOC(=O)C#CC(C)(C)OC(=O)Nc1ccc(-c2ncn(-c3ccc(OC(F)(F)F)cc3)n2)cc1 | 183 to 188 °C
61 | Nc1ccc(C(c2ccc(N)c(N)c2)(C(F)(F)F)C(F)(F)F)cc1N | 218 to 220 °C
62 | c1ccc(C(NC2C3CC4CC(C3)CC2(OCc2ccc(-c3nc5ccccc5o3)cc2)C4)(c2ccccc2)c2ccccc2)cc1 (stereo unspecified) | 208 to 210 °C

Row | Compound | melting point
63 | CN=C(NC#N)N1CC1 | 130 to 132 °C
64 | Cc1c(O)c(=O)ccn1CCCCO | 126 to 128 °C
65 | CCCCCCCNC(=O)Nc1ccc(N(C)C)cc1C(=O)N(CC1CCN(C(c2ccccc2)c2ccccc2)CC1)N(C)C | 178 to 179 °C
66 | Cc1nc(C)nc(-c2cccc(-c3ccccc3C)n2)n1 | 86.8 °C
67 | CC(C)(C)OC(=O)NCC(=O)N1[C@@H](C(=O)OC(C)(C)C)C[C@H](S(=O)(=O)c2ccccc2)[C@H]1c1ccccc1F (racemic) | 134 °C
68 | CCCC(C(=O)N(C)C)n1cc(C)c(-c2ccco2)n1 (stereo unspecified) | 107 to 109 °C
69 | CN(C)S(=O)(=O)c1ccccc1-c1ccc2c(c1)S(=O)(=O)NC(C1CCCCC1)N2 (stereo unspecified) | 290 to 300 °C
70 | C=CC(=O)Nc1cccc(OC(=O)NCCCCCCCCCCCCCCCCCC)c1 | 124 to 126 °C
71 | COc1cc(-n2nc(C)[nH]c2=O)ccc1C | 164 to 168 °C
72 | COc1cc([N+](=O)[O-])ccc1S(=O)(=O)n1c(=O)n(C2CCCCCC2)c2cc(Cl)ccc21 | 193 °C
73 | O=NSC1(CCOC(=O)CCC(=O)O)C2CC3CC(C2)CC1C3 (stereo unspecified) | 63 to 70 °C
74 | CNC(=O)ON=C(C)CN(c1c(C)cccc1C)S(C)(=O)=O | 130 to 134 °C
75 | O=[N+]([O-])c1cn2c(n1)OC[C@@H](OCc1csc(-c3ccc(OC(F)(F)F)cc3)n1)C2 | 140 to 141 °C
76 | Cc1ccc(NCC(=O)Nc2ccc(S(N)(=O)=O)cc2Cl)cc1 | 215 to 216 °C
77 | COC(=O)c1cc(-c2nc(COc3ccc(COc4nn(-c5ccccc5)cc4C=O)cc3OC)c(C)o2)ccc1C | 195 to 196 °C
78 | CCCCNCc1ccc2cc(OC)ccc2c1 | 55 to 80 °C
79 | CCCn1c(-c2ccc(-n3ccnc3)cc2)cnc1[C@H](Cc1ccccn1)N(C=O)c1cc2cc(Br)ccc2o1 | 93 to 99 °C
80 | C=Cn1cc(C(=O)O)c(=O)c2cc(F)c(N3CCN(C)CC3)cc21 | 242 °C
81 | Nc1c(Nc2ccon2)cnc2c1COCC2 | 209 to 211 °C
82 | Cc1ccnc(CCOc2ccc(NC(=O)N(C)C)cc2)c1 | 132 to 133 °C

Row | Compound | melting point
83 | COc1ccc(F)c(F)c1C(=O)c1cnc(NC2CCN(S(N)(=O)=O)CC2)nc1N | 217 to 218 °C
84 | COc1ccc(NS(=O)(=O)c2ccc(N3CCC(NC[C@H](O)COc4ccc(O)cc4)CC3)cc2)cc1OC | 101 to 106 °C
85 | CC(=O)N1CCCC(C2=C(C#N)C(c3cccc4nonc34)c3c[nH]nc3N2)C1 (stereo unspecified) | 219 °C
86 | O=S(=O)(O)CCNCCO | 180 to 183 °C
87 | N#Cc1cc(CBr)ccc1Cl | 55 to 58 °C
88 | CCC(OC(C)=O)c1ccc(Cl)c2nc3n(c12)CCCN3c1cnc(N(C)C)cc1C (stereo unspecified) | 159 to 160 °C
89 | CCCCC(=O)N(Cc1ccc(OC(F)(F)F)c(Cl)c1)c1cc(F)cc(-c2nnn[nH]2)c1 | 137 °C
90 | COc1ccc(N2CCOCC2)c2sc(-c3nc4c([nH]3)CCN(C(=O)c3ccccc3C)CC4)nc12 | 194 to 196 °C
91 | CCOC(=O)Nc1cc(Cl)nc(NC(=O)OCC)n1 | 153 to 154 °C
92 | COC(=O)C[C@@H]1CCC/C1=C\Cc1c(O)c2c(c(C)c1OC)COC2=O | 72 to 74 °C
93 | Cc1cc(OC(F)F)ccc1NC(=O)c1cccc(N)c1C(=O)NC(C)C | 148 to 149 °C
94 | COc1cc2ncc(C#N)c(Nc3cccc(Oc4ccccc4)c3)c2cc1OC | 253 to 254 °C
95 | COC(=O)C=Cc1ccc(Br)cc1 | 80 °C
96 | COc1ccc([N+](=O)[O-])c2c1C(=O)CCC2 | 65 to 71 °C
97 | CCC(=O)N1CCC[C@H]1C(=O)O | 98 to 99 °C
98 | Cc1ncsc1C(=O)Nc1ccc(-n2nc(C(F)(F)F)c(Cl)c2C2CC2)nc1 | 144 to 149 °C
99 | O=C(c1ccc(Br)cc1)N(C1CCCCC1)C1CCCC1 | 110 to 112 °C
100 | CCCc1c(C(=O)C(C)C)c2ccc(C(=O)OC)cc2n1Cc1ccccc1C#N | 159 to 161 °C
101 | CC(=O)c1ccc(CC(C)C)c(C#N)c1 | 71 to 72 °C
